Test results from patent publication US10081632B2, “Substituted tetrahydropyrido[3′,2′:4,5]pyrrolo[1,2-α]pyrazine-2-carboxamides as RSK inhibitors” (Phoenix Molecular Designs, priority 2016, dated 2018).
Counter-ions that a name gives are not always drawn.

How the values were obtained:
[1] = tested on: 4T1 cells; test: Soft agar growth inhibition assay; format: cell-based; settings: Mus musculus; 4T1 (TNBC), 14-22 days; read-out: IC50 Values - Soft Agar (14-22 Days)
Method: Two agar (Alfa Aesar) solutions (0.8% w/v and 0.4% w/v) were prepared in ultrapure water. The 0.8% agar solution was mixed in equal volumes with 2× media previously prepared from powder (Life Technologies) following the manufacturer's instructions and filter sterilized. The 0.8% agar and media solution was added to 24 well plates (Mandel Scientific) at 500 μl per well. The plates were placed in a humidified incubator at 37° C. with 5% CO2. Next, the 0.4% agar solution was mixed in equal volumes with 2× media. Breast cancer cell lines were added to this solution to achieve a final concentration of 2×10^4 cells per well and […] was added to each well on top of the bottom agar and media layer. […] The plates were returned to the incubator for 10-32 days, with a re-dosing of compounds or DMSO every 7 days. After 10-32 days, colonies were counted in 3 different fields of view for each well.
Representative compounds described herein were tested in the soft agar growth inhibition assay against the 4T1 breast cancer cell line.

[2] = tested on: HCC1143 cells; test: Monolayer growth inhibition, crystal violet assay; format: cell-based; settings: Homo sapiens; HCC1143 (TNBC), 5 days, single dose on day 1
Source text: (§1) In all instances a single dose was given on day 1 of the experiment.

[3] = tested on: MDA-MB-435 cells; test: Monolayer growth inhibition, crystal violet assay; format: cell-based; settings: Homo sapiens; MDA-MB-435 (Melanoma), 5 days, single dose on day 1
Source text: as §1

[4] = tested on: 4T1 cells; test: Monolayer growth inhibition, crystal violet assay; format: cell-based; settings: Mus musculus; 4T1 (TNBC), 5 days, single dose on day 1
Source text: as §1

[5] = tested on: SUM149 cells; test: Monolayer growth inhibition, crystal violet assay; format: cell-based; settings: Homo sapiens; SUM149 (TNBC, BRCA Mutant), 5 days, single dose on day 1
Source text: as §1

[6] = tested on: SUM149-PTXR cells; test: Monolayer growth inhibition, crystal violet assay; format: cell-based; settings: Homo sapiens; SUM149-PTXR (TNBC, BRCA Mutant), 5 days, single dose on day 1
Source text: as §1

[7] = tested on: MDA-MB-231 cells; test: Monolayer growth inhibition, crystal violet assay; format: cell-based; settings: Homo sapiens; MDA-MB-231 (TNBC), 5 days, single dose on day 1
Source text: as §1

[8] = tested on: PC3 cells; test: Monolayer growth inhibition, crystal violet assay; format: cell-based; settings: Homo sapiens, PC-3; PC3 (Prostate), 5 days, single dose on day 1
Source text: as §1

[9] = tested on: All cell lines; test: Monolayer growth inhibition, crystal violet assay, range over all cell lines; format: cell-based; settings: 120 h; range of IC50 over all cell lines of the table; read-out: IC50 Values - Crystal Violet (5 Days), Range, All
Source text: (§2) In all instances a single dose was given on day 1 of the experiment. […] Complete (100%) growth suppression was achievable with several of the compounds in multiple different cell lines.

[10] = tested on: T47D cells; test: Monolayer growth inhibition, Alamar blue assay; format: cell-based, Human; settings: Homo sapiens; T47D (ER/PR), 5 days, single dose on day 1
Source text: as §1

[11] = tested on: SUM149-PTXR cells; test: Monolayer growth inhibition, Alamar blue assay; format: cell-based, Human; settings: Homo sapiens; SUM149-PTXR (TNBC, BRCA Mutant), 5 days, single dose on day 1
Source text: as §1

[12] = tested on: MDA-MB-231 cells; test: Soft agar growth inhibition assay; format: cell-based; settings: Homo sapiens; MDA-MB-231 (TNBC), 14-22 days; read-out: IC50 Values - Soft Agar (14-22 Days)
[13] = tested on: T47D cells; test: Monolayer growth inhibition, crystal violet assay; format: cell-based; settings: Homo sapiens; T47D (ER/PR), 5 days, single dose on day 1
Source text: as §2

[14] = tested on: MDA-MB-468 cells; test: Monolayer growth inhibition, crystal violet assay; format: cell-based; settings: Homo sapiens; MDA-MB-468 (TNBC), 5 days, single dose on day 1
Source text: as §2

[15] = tested on: HCC1937 cells; test: Monolayer growth inhibition, crystal violet assay; format: cell-based; settings: Homo sapiens; HCC1937 (TNBC, BRCA Mutant), 5 days, single dose on day 1
Source text: as §2

[16] = tested on: JIMT-1 cells; test: Monolayer growth inhibition, crystal violet assay; format: cell-based; settings: Homo sapiens; JIMT-1 (HER2), 5 days, single dose on day 1
Source text: as §2

[17] = tested on: All cell lines; test: Monolayer growth inhibition, Alamar blue assay, range over all cell lines; format: cell-based; settings: 120 h; range of IC50 over all cell lines of the table; read-out: IC50 Values - Alamar Blue (5 Days), Range, All
Source text: as §1

[18] = tested on: HCC1143 cells; test: Monolayer growth inhibition, Alamar blue assay; format: cell-based; settings: Homo sapiens; HCC1143 (TNBC), 5 days, single dose on day 1
Source text: as §1

[19] = tested on: MDA-MB-435 cells; test: Monolayer growth inhibition, Alamar blue assay; format: cell-based; settings: Homo sapiens; MDA-MB-435 (Melanoma), 5 days, single dose on day 1
Source text: as §1

[20] = tested on: MDA-MB-468 cells; test: Monolayer growth inhibition, Alamar blue assay; format: cell-based; settings: Homo sapiens; MDA-MB-468 (TNBC), 5 days, single dose on day 1
Source text: as §1

[21] = tested on: 4T1 cells; test: Monolayer growth inhibition, Alamar blue assay; format: cell-based; settings: Mus musculus; 4T1 (TNBC), 5 days, single dose on day 1
Source text: as §1

[22] = tested on: SUM149 cells; test: Monolayer growth inhibition, Alamar blue assay; format: cell-based; settings: Homo sapiens; SUM149 (TNBC, BRCA Mutant), 5 days, single dose on day 1
Source text: as §1

[23] = tested on: HCC1937 cells; test: Monolayer growth inhibition, Alamar blue assay; format: cell-based; settings: Homo sapiens; HCC1937 (TNBC, BRCA Mutant), 5 days, single dose on day 1
Source text: as §1

[24] = tested on: JIMT-1 cells; test: Monolayer growth inhibition, Alamar blue assay; format: cell-based; settings: Homo sapiens; JIMT-1 (HER2), 5 days, single dose on day 1
Source text: as §1

[25] = tested on: MDA-MB-231 cells; test: Monolayer growth inhibition, Alamar blue assay; format: cell-based; settings: Homo sapiens; MDA-MB-231 (TNBC), 5 days, single dose on day 1
Source text: as §1

[26] = tested on: PC3 cells; test: Monolayer growth inhibition, Alamar blue assay; format: cell-based; settings: Homo sapiens, PC-3; PC3 (Prostate), 5 days, single dose on day 1
Source text: as §1

[27] = Solubility assessment, 20 mg/ml solution; format: physicochemical; settings: for pH of 20 mg/ml solution: pH test strips
Method: Solubility is an important property for therapeutic drug candidates. Poor solubility can lead to low bioavailability resulting in suboptimal drug delivery. It can also prevent the evaluation of test agents in animals because the concentration(s) needed to achieve the desired effect cannot be achieved to poor solubility. For solubility assessments, small molecules targeting RSK were compared. For these assessments, 100 mM solutions of the compounds dissolved in DMSO were diluted in DMEM growth media (Life Technologies) supplemented with fetal bovine serum (FBS, Life Technologies) and 100 units/ml penicillin and 100 units/ml streptomycin (Life Technologies) to make 20 mg/ml solutions. Once diluted, the solutions were vortexed and examined for the formation of precipitates. […] For Compound 26, a 100 mM solution of the compound dissolved in DMSO was diluted in phosphate buffered saline (Life Technologies) to make a 20 mg/ml solution. The stock of […] was chosen because this is the upper end of what would be required to dose mice for a range of studies including MTD, PK, PD and efficacy. The pH of this solution was determined to be 2, as previously described. […] At high concentrations some RSK inhibitors were highly soluble while others were not. Compound 0 is (R)—N-(1-benzyl-1H-pyrazol-4-yl)-9-methyl-6-oxo-6,7,8,9-tetrahydropyrido[3′,2′:4,5]pyrrolo[1,2-a]pyrazine-2-carboxamide. Compound 0 was not soluble, whereas Compounds 18, 20, 21, 25 and 26 were soluble under the same conditions (Table 5).

[28] = tested on: MDA-MB-468 cells; test: Soft agar growth inhibition assay; format: cell-based, Human; settings: Homo sapiens; MDA-MB-468 (TNBC), 14-22 days
[29] = tested on: phosphorylated Y-box binding protein-1 (YB-1) at serine 102 (P-YB-1S102); test: Immunoblotting of cell signalling, loss of P-YB-1 in MDA-MB-231 cells; settings: Homo sapiens, MDA-MB-231, read-out: IC50 values for P-YB-1
Method: Following desired experimental conditions, breast cancer cell lines grown and treated in 6 well plates or 100 mm culture dishes (Grenier Bio-One) were placed on ice and the supernatant from each well was removed and the cells were washed in cold PBS. Following removal of PBS, cells were exposed to radioimmunoprecipitation assay (RIPA) buffer (50 mM Tris-HCl (pH 8), 150 mM NaCl, 1% NP-40, 0.5% sodium deoxycholate, 0.1% SDS; Fisher Scientific) supplemented with 1% phosphatase inhibitor (Fisher Scientific) and 1% protease inhibitor (Fisher Scientific) for 10 minutes. Samples were transferred to eppendorf tubes, vortexed and then centrifuged at 14 000 rpm for 10 minutes. Supernatants were collected as whole cell lysates.
To begin, the protein content of the lysates was measured using the Bicinchoninic Acid (BCA) Protein Assay Kit (Pierce), which included a protein standard curve generated with bovine serum albumin. Appropriate volumes of samples and loading buffer (50 mM Tris-HCl (pH 6.8), 2% SDS, 10% glycerol, 1% j-mercaptoethanol, 12.5 mM EDTA, 0.02% bromophenol blue) were mixed, ensuring that equal amounts of protein were loaded. For the majority of experiments in this study, 30 μg of protein per well was loaded. Samples were then resolved on SDS-PAGE (polyacrylamide gel electrophoresis) using various percentages of acrylamide gels (8%-12%), depending on the proteins of interest. SDS-PAGE was run in SDS running buffer (25 mM Tris, 192 mM glycine, 0.1% SDS) and then transferred to nitrocellulose membranes (Bio-Rad) in transfer buffer (48 mM Tris, 39 mM glycine, 20% (v/v) methanol) at 100 volts for 90 minutes at room temperature. Immunoblots were then blocked in 5% skim milk in tris-buffered saline with 0.1% Tween-20 (TBS-T; 50 mM Tris-HCl, pH 7.5, 150 mM NaCl, 0.1% (v/v) Tween-20 (Fisher Scientific)) for 1 to 2 hours. Immunoblots were then incubated with selected primary antibodies diluted in TBS-T with 0.1% gelatin (Bio-Rad) and 0.05% sodium azide (Alfa Aesar) overnight. Following washes with TBT-T 4 times for 8 to 10 minutes, immunoblots were incubated with appropriate secondary antibodies conjugated to horseradish peroxidise (Cell Signalling Technology) diluted in TBS-T plus 5% skim milk at a ratio of 1:5000 for 2 hours at room temperature. After an additional round of washes in TBS-T, immunoblots were exposed to combined enhanced chemiluminescence (ECL) reagents (Fisher Scientific) for 1 minute and developed using ChemiDoc MP Imaging System (Bio-Rad). For certain immunoblots, bands of proteins of interest were scanned and band intensity ratios were determined by densitometric analysis (ImageJ). […] Total YB-1 was used as a loading control (1:5000 Abcam). […] To assess whether cells are actively undergoing cell death, the activity of poly ADP ribose polymerase (PARP) (1:1000 CST) was also measured using the immunoblotting method.

[30] = 100 mM in DMSO diluted in DMEM growth media to 20 mg/ml

Compound | IC50 [1] [µM] | IC50 [2] [µM] | IC50 [3] [µM] | IC50 [4] [µM] | IC50 [5] [µM] | IC50 [6] [µM] | IC50 [7] [µM] | IC50 [8] [µM] | IC50 [9] [µM] | IC50 [11] [µM] | IC50 [12] [µM] | IC50 [14] [µM] | IC50 [15] [µM] | IC50 [16] [µM] | IC50 [17] [µM] | IC50 [18] [µM] | IC50 [19] [µM] | IC50 [20] [µM] | IC50 [21] [µM] | IC50 [22] [µM] | other results
C[C@@H]1CNC(=O)c2cc3ccc(C(=O)Nc4ccccc4C(N)=O)nc3n21 [Compound 21, (R)—N-(2-carbamoylphenyl)-9-methyl-6-oxo-6,7,8,9-tetrahydropyrido[3′,2′:4,5]pyrrolo[1,2-a]pyrazine-2-carboxamide] | 3.1 ± 0.6 | 9.5 ± 5.6 | 4.8 ± 2.1 | 1.1 ± 0.7 | 2.4 ± 1.3 | 2 ± 0.2 | 9.1 ± 0.8 | 4.3 ± 0.5 | 1.1 to 11.3 | 1.5 ± 0.8 | 2 ± 1 | 4.6 ± 1.4 | 11 ± 1 | 11.3 ± 4.1 | 1.2 to 14.7 | 5.4 ± 3.7 | 8.3 ± 5.3 | 6.5 ± 4.5 | 1.2 ± 0.3 | 2.7 ± 1.3 | IC50 [10]: 8 ± 3.8 µM; IC50 [13]: 3.7 ± 2.7 µM; IC50 [23]: 8.3 ± 2.4 µM; IC50 [24]: 12.6 ± 6.4 µM; IC50 [25]: 14.7 ± 4.3 µM; IC50 [26]: 7.1 ± 0.9 µM; Solubility, 20 mg/ml Solution [27, 30]: Soluble; pH of 20 mg/ml solution ([27]; DMSO stock diluted in DMEM): 9; IC50 [28]: 0.4 ± 0.1 µM
C[C@@H]1CNC(=O)c2cc3ccc(C(=O)Nc4cnn(Cc5ccc(F)cc5F)c4)nc3n21 [Compound 23, (R)—N-(1-(2,4-difluorobenzyl)-1H-pyrazol-4-yl)-9-methyl-6-oxo-6,7,8,9-tetrahydropyrido[3′,2′:4,5]pyrrolo[1,2-a]pyrazine-2-carboxamide] | 2.4 ± 0.6 | 7.3 ± 3.4 | 1.1 ± 0.8 | 1.8 ± 0.8 | 2.1 ± 1.6 | 5 ± 2.4 | 3.6 ± 0.8 | 6.8 ± 1.8 | 1.1 to 15 | 5.1 ± 4 | 0.3 ± 0.2 | 7.2 ± 1.5 | 8.6 ± 3 | 15 ± 6.1 | 1.1 to 19.8 | 9.7 ± 1.3 | 1.1 ± 0.7 | 9.7 ± 1.8 | 2.5 ± 0.8 | 3 ± 2.4 | IC50 [29]: 0.033 µM; IC50 [10]: 6 ± 4.9 µM; IC50 [13]: 4.7 ± 4.9 µM; IC50 [23]: 10.5 ± 1 µM; IC50 [24]: 19.8 ± 7.1 µM; IC50 [25]: 7.8 ± 2 µM; IC50 [26]: 10.7 ± 1.1 µM; Solubility, 20 mg/ml Solution [27, 30]: Precipitate; IC50 [28]: 4 ± 0.8 µM
C[C@@H]1CNC(=O)c2cc3ccc(C(=O)Nc4cnn(Cc5ccc(CN)cc5)c4)nc3n21 [Compound 26, (R)—N-(1-(4-(aminomethyl)benzyl)-1H-pyrazol-4-yl)-9-methyl-6-oxo-6,7,8,9-tetrahydropyrido[3′,2′:4,5]pyrrolo[1,2-a]pyrazine-2-carboxamide hydrochloride salt] | 5.3 ± 1.3 | 7.3 ± 2.7 | 1.6 ± 0.3 | 4.9 ± 1.1 | 6.5 ± 4.4 | 6.5 ± 2.1 | 3.7 ± 1.8 | 1.5 ± 0.5 | 1.5 to 12.3 | 8.8 ± 2.5 | 0.2 ± 0.1 | 1.7 ± 0.2 | 6.6 ± 1.6 | 12.3 ± 3.2 | 1.9 to 15.5 | 9.6 ± 6.1 | 3.9 ± 1.3 | 2.5 ± 0.7 | 6.2 ± 2.5 | 9.8 ± 5.7 | IC50 [29]: 0.047 µM; IC50 [23]: 5.6 ± 0.4 µM; IC50 [24]: 15.5 ± 6.6 µM; IC50 [25]: 7.4 ± 1.7 µM; IC50 [26]: 1.9 ± 0.8 µM; Solubility after addition of 4M NaOH ([27]; 20 mg/ml in PBS, pH equal to 9): remained in solution; Solubility, 20 mg/ml Solution ([27]; 100 mM in DMSO diluted in PBS to 20 mg/ml, hydrochloride salt): Soluble; pH of 20 mg/ml solution ([27]; DMSO stock diluted in PBS, hydrochloride salt): 2-9; IC50 [28]: 2 ± 0.2 µM
